Measured values reported in patent publication US9060997B2, “Antifolate compounds for the treatment of melanoma” (UNIVERSIDAD DE MURCIA, priority 2007, dated 2015).

Tests used:
MCF7 cells = test: MTT cell proliferation assay, MCF7; assay type: cell-based; conditions: Homo sapiens, 144 h; MCF7, 6 days of treatment
Method: (§1) Four human cancer cells lines (SkMel-28, MCF7, H1264 and Caco-2) were obtained from the American Type Tissue Culture Collection (ATCC) and were maintained in appropriate culture mediums supplemented with 10% fetal calf serum (FCS) and antibiotics, under standard tissue culture conditions (e.g. modified Eagle's medium (MEM) containing 1 mM sodium pyruvate and 10% fetal bovine serum (FES) under 5% CO2/95% air atmosphere.). Cell injury was evaluated by a colorimetric assay for mitochondrial function using the 3-(4,5-dimethylthiazolyl-2)-2,5-diphenyltetrazolium bromide (MTT) cell proliferation assay. For this assay cells were plated in a 96-well plate at a density of 1000 cells/well and grown until they reached 50-60% confluence. Human epidermal melanocytes (HeM) were supplied by Gentaur and were cultured in HAM-F10 medium supplemented with 10% FCS, antibiotics and the human melanocyte growth supplement (Gentaur).

H1264 cells = test: MTT cell proliferation assay, H1264; assay type: cell-based; conditions: Homo sapiens, 144 h; H1264, 6 days of treatment
Method: as §1

SkMel-28 cells = test: MTT cell proliferation assay, SkMel-28; assay type: cell-based, human
Method: as §1
Cell injury was evaluated by a colorimetric assay for mitochondrial function using the 3-(4,5-dimethylthiazolyl-2)-2,5-diphenyltetrazolium bromide (MTT) cell proliferation assay. For this assay cells were plated in a 96-well plate at a density of 1000 cells/well and grown until they reached 30% confluence. Co-treatments of SkMel-28 cells with TMECG and other reagents were carried out by supplementing medium cultures with S-adenosylmethionine (SAM), adenosine or dipyridamole (all from Sigma).

[1] = tested on: Caco-2 and SkMel-28 cells; test: Cellular uptake of ECG, TMECG and QM; assay type: in vitro ADME, human; conditions: 50 μM catechins
Method: Cellular uptake was determined by the difference between the initial concentration of catechin and the calculated at specific times in the cellular medium, and expressed as a percentage of catechin at zero time. The values presented are the mean percentage determined from five independent experiments±SD.
For cellular uptake experiments Caco-2 and SkMel-28 cells were grown until reaching 90% confluence. Then, 20 ml of cellular medium containing 50 μM catechins and 0.2 mM ascorbic acid was added and incubated for 60 h in a CO2 incubator. At specified times 1 ml-aliquots were taken and frozen in liquid N2 until the catechin concentrations were determined by HPLC. Catechins were identified by their characteristic elution times and their concentration calculated with respect to calibration curves of known concentrations of catechins.

Caspase-3 = Caspase-3 colorimetric activity assay; assay type: cell-based, human; conditions: SkMel-28, 50 μM, 7 days
Method: Cells were treated for 7 days with 50 μM TMECG. Caspase-3 activity was determined in the absence or the presence of […]. The results are expressed as the mean±SD of three cultures.
Caspase-3 activity in the SkMel-28 cells was measured using the caspase-3 colorimetric activity assay kit (Sigma). Briefly, the cells were washed with cold PBS and lysed with cell lysis buffer included in the kit. The cell lysates were centrifuged (10,000 g for 5 min at 4° C.), and the supernatants were collected. Equal amounts of protein (100 μg), 30 μg of colorimetric caspase-3 substrate (acetyl-Asp-Glu-Val-Asp p-Nitroanilide; Ac-[…]-pNA) and assay buffer were added to each reaction mix, which were then incubated for 4 h at 37° C. Caspase-3 activity was determined by measuring the absorbance at 405 nm. One unit of caspase-3 activity was expressed as 1 pmol of pNA formed per hour, and its specific activity was that unit divided by micrograms of protein. Caspase-3 inhibitor ([…]) was used as negative control.

human tyrosinase = target: T1, human tyrosinase (Homo sapiens, UniProt P14679); test: Tyrosinase-catalyzed oxidation, steady-state kinetics; assay type: biochemical; set-up: Human tyrosinase was purified to homogeneity from SkMel-28 (1×10^8 cells) following the protocol designed by Yurkow and Laskin (1989); endogenous in cells; host or cells: SkMel-28; conditions: human tyrosinase from SkMel-28, pH 5.5, 25° C.; read-out: Michaelis-Menten constant (Km)
T1 sequence (P14679 19-529): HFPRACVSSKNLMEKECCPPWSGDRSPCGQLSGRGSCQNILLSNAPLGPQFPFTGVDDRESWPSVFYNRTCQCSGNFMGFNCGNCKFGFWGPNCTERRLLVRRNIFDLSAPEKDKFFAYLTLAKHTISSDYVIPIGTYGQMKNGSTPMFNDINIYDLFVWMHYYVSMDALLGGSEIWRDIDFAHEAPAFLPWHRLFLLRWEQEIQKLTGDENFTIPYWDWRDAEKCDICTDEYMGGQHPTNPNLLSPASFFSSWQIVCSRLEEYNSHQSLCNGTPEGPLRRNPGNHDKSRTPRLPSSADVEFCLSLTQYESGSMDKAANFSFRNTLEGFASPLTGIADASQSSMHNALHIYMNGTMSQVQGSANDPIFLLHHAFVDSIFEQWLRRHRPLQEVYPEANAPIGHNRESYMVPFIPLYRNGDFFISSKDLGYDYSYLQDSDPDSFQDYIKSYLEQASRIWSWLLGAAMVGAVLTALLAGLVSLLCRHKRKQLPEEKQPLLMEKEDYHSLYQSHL
Method: The arrow represents the absorbance direction and the time between recordings was 1 min. […] Data was fitted to the Michaelis-Menten equation using non-lineal regression analysis.
Human tyrosinase was purified to homogeneity from SkMel-28 (1×10^8 cells) following the protocol designed by Yurkow and Laskin (1989). TMECG oxidation catalyzed by human tyrosinase was followed using a Perkin-Elmer Lambda-35 spectrophotometer. Steady-state kinetic constants were obtained by measuring the initial rates of TMECG oxidation at 412 nm in 30 mM sodium acetate buffer, pH 5.5 and 25° C.

B16 melanoma cells = test: Metastasis model, B16 cells injected into tail vein; assay type: in vivo, mouse; conditions: TMECG 20 mg/Kg/d plus Dipyridamol 10 mg/Kg/d intraperitoneal, 30 days, female mice
Method: B16 melanoma cells were injected into the tail vein, allowing microtumours to develop (1 week), then, the animal were treated for 21 days with […]) plus Dipyridamol (10 mg/Kg/d) by intraperitoneal injection. The animals were sacrifice and lungs and liver analyzed for tumor growth. We have now increased the number of treated and control animals (treated 21 female mice compared with 21 control (untreated) females) and the time of treatment (30 days). […] 31).

COc1cc(C(=O)O[C@@H]2Cc3c(O)cc(O)cc3O[C@@H]2c2ccc(O)c(O)c2)cc(OC)c1OC [TMECG, 3-O-(3,4,5-trimethoxybenzoyl)-(−)-epicatechin]
IC50 (MCF7 cells): 80 µM | IC50 (H1264 cells): 18 µM | effect of leucovorin co-treatment on growth inhibition (SkMel-28 cells; 100 μM leucovorin, MTX 1 μM or TMECG 50 μM, 3 days): did not | inhibition at 50 µM (SkMel-28 cells; Homo sapiens, SK-MEL-28, 120 h, 50 μM, five days of treatment, read-out: growth of SkMel-28 inhibited): > 60% | IC50 (SkMel-28 cells; Homo sapiens, SK-MEL-28, 144 h, SkMel-28, 6 days of treatment, read-out: IC50 (at 6 days)): 2.9 µM | effect of natural and synthetic catechins on SkMel-28 growth (SkMel-28 cells; SkMel-28): highly inhibited | DNA fragmentation (apoptosis) (SkMel-28 cells; SkMel-28, 50 μM, 7 days): visible after treatment | effect of sulfasalazine (RFC inhibitor) on antiproliferative action (SkMel-28 cells; sulfasalazine 0.5 mM, MTX 0.2 μM or TMECG 10 μM, 3 days): enhancing TMECG antiproliferative activity | cellular uptake / membrane transport [1]: greater than the uptake of its related natural catechin, ECG | caspase-3 activity (Caspase-3): significantly higher caspase-3 activity | Km (human tyrosinase): 120 ± 20 µM | lung metastasis (B16 melanoma cells): reduction on lung metastasis
